Test system: type III secretion in S. typhimurium
Test: microbe, parasite or virus in culture
Format: cell-based, Salmonella enterica serovar Typhimurium
Details: for inhibition at 3.3 µM / inhibition at 33 µM / inhibition at 330 µM: read-out: % inhibition of SipA secretion; for % Secretion: type III secretion in S. typhimurium, SipA secretion by Western blot
[1] = Salmonella enterica, TYPHIMURIUM

COc1cc(/C=C2\SC(=Nc3ccccc3)N([C@@H](CCCN)C(=O)N[C@@H](CC3CNc4ccccc43)C(N)=O)C2=O)cc(OC)c1O (stereo partly drawn) [compound 90, (S)-5-amino-N-((S)-1-amino-3-(indolin-3-yl)-1-oxopropan-2-yl)-2-((5Z)-5-(4-hydroxy-3,5-dimethoxybenzylidene)-4-oxo-2-(phenylimino)thiazolidin-3-yl)pentanamide]
inhibition at 3.3 µM [1]: 20% | inhibition at 33 µM [1]: 22% | inhibition at 330 µM [1]: 100%

O=C1CS/C(=N\c2ccccc2)N1c1ccccc1 [Compound 8]
% Secretion: 62 ± 3%

COc1cc(/C=C2\S/C(=N\c3ccccc3)N([C@@H](C)C(=O)N[C@@H](CCCNC(=N)N)C(N)=O)C2=O)cc(OC)c1O [Compound 2]
SipA detected in the supernate (3.8 μM, Western blot): minimal SipA was detected | inhibition at 38 µM (Salmonella enterica, TYPHIMURIUM, read-out: inhibition of detectable secreted SipA): 100% | % Secretion: 0 ± 0%

COc1cc(/C=C2\S/C(=N\c3ccccc3)N([C@@H](C)C(=O)N[C@@H](C)C(N)=O)C2=O)cc(OC)c1O [compound 49, (S)-N-((S)-1-amino-1-oxopropan-2-yl)-2-((2Z,5Z)-5-(4-hydroxy-3,5-dimethoxybenzylidene)-4-oxo-2-(phenylimino)thiazolidin-3-yl)propanamide]
inhibition at 33 µM [1]: 26% | inhibition at 330 µM [1]: 94%

COc1cc(/C=C2\S/C(=N\c3ccccc3)N([C@@H](CCCN)C(=O)N[C@@H](C)C(N)=O)C2=O)cc(OC)c1O [compound 86]
% inhibition of SipA secretion (3.3 μM, Western blot): 19% | % inhibition of SipA secretion (33 μM, Western blot): 46% | % inhibition of SipA secretion (330 μM, Western blot): 100%

COc1cc(/C=C2\S/C(=N\c3ccccc3)N(C(C)C(=O)N[C@@H](Cc3c[nH]c4ccccc34)C(N)=O)C2=O)cc(OC)c1O (stereo partly drawn) [compound 51, N-((S)-1-amino-3-(1H-indol-3-yl)-1-oxopropan-2-yl)-2-((2Z,5Z)-5-(4-hydroxy-3,5-dimethoxybenzylidene)-4-oxo-2-(phenylimino)thiazolidin-3-yl)propanamide]
inhibition at 330 µM [1]: 100%

COc1cc(/C=C2\S/C(=N\c3ccccc3)N(C(C(=O)N[C@@H](Cc3ccc(O)cc3)C(N)=O)C(C)C)C2=O)cc(OC)c1O (single isomer, unassigned) [compound 69]
inhibition at 33 µM [1]: 32% | inhibition at 330 µM [1]: 97%

COc1cc(/C=C2\S/C(=N\c3ccccc3)N([C@@H](CCCNC(=N)N)C(=O)N[C@@H](C)C(N)=O)C2=O)cc(OC)c1O [compound 87, (S)-N-((S)-1-amino-1-oxopropan-2-yl)-5-guanidino-2-((2Z,5Z)-5-(4-hydroxy-3,5-dimethoxybenzylidene)-4-oxo-2-(phenylimino)thiazolidin-3-yl)pentanamide]
inhibition at 3.3 µM [1]: 0% | inhibition at 33 µM [1]: 38% | inhibition at 330 µM [1]: 100%

COc1cc(/C=C2\S/C(=N\c3ccccc3)N([C@@H](Cc3ccc(-c4ccccc4)cc3)C(=O)N[C@@H](CCCNC(=N)N)C(N)=O)C2=O)cc(OC)c1O [compound 96]
% inhibition of SipA secretion (3.3 µM): 100 (330) 95 (33) 54 (3.3) % | % inhibition of SipA secretion (33 µM): 100 (330) 95 (33) 54 (3.3) % | % inhibition of SipA secretion (330 µM): 100 (330) 95 (33) 54 (3.3) %

COc1ccc(N2C(=O)/C(=C/c3cc(OC)c(O)c(OC)c3)S/C2=N\c2ccccc2)cc1 [Compound 3]
% Secretion: 0 ± 0%

COc1cc(/C=C2\S/C(=N\c3ccccc3)N([C@@H](CCCN)C(=O)N[C@@H](Cc3ccc(-c4ccccc4)cc3)C(N)=O)C2=O)cc(OC)c1O [compound 91]
% inhibition of SipA secretion (3.3 µM): 100 (330) 66 (33) 3 (3.3) % | % inhibition of SipA secretion (33 µM): 100 (330) 66 (33) 3 (3.3) % | % inhibition of SipA secretion (330 µM): 100 (330) 66 (33) 3 (3.3) %

O=C1/C(=C/c2ccccc2)S/C(=N\c2ccccc2)N1c1ccccc1 [Compound 7]
% Secretion: 90 ± 2%

COc1cc(/C=C2\S/C(=N\c3ccccc3)N([C@@H](C)C(=O)N[C@@H](CCCNC(=N)N)C(N)=O)C2=O)cc(OC)c1O [compound 56, (S)-5-Guanidino-2-((S)-2-((2Z,5Z)-5-(4-hydroxy-3,5-dimethoxybenzylidene)-4-oxo-2-(phenylimino)thiazolidin-3-yl)propanamido)pentanamide]
inhibition at 33 µM [1]: 1% | inhibition at 330 µM [1]: 100%

COc1cc(/C=C2\S/C(=N\c3ccccc3)N(CCCC(=O)OC(C)(C)C)C2=O)cc(OC)c1O [compound 60, t-Butyl-4-((2Z,5Z)-5-(4-hydroxy-3,5-dimethoxybenzylidene)-4-oxo-2-(phenylimino)thiazolidin-3-yl)butanoate]
inhibition at 3.3 µM [1]: 35% | inhibition at 330 µM [1]: 90%

COc1cc(/C=C2\S/C(=N\c3ccccc3)N(CC(=O)O)C2=O)cc(OC)c1O [compound 57, 2-((2Z,5Z)-5-(4-hydroxy-3,5-dimethoxybenzylidene)-4-oxo-2-(phenylimino)thiazolidin-3-yl)acetic acid]
inhibition at 3.3 µM [1]: 51% | inhibition at 330 µM [1]: 100%

COc1cc(/C=C2\S/C(=N\c3ccccc3)N(C(CCCNC(=N)N)C(=O)N3CSC[C@H]3C(N)=O)C2=O)cc(OC)c1O (stereo partly drawn) [compound 94, (R)-3-(5-guanidino-2-((2Z,5Z)-5-(4-hydroxy-3,5-dimethoxybenzylidene)-4-oxo-2-(phenylimino)thiazolidin-3-yl)pentanoyl)thiazolidine-4-carboxamide]
inhibition at 3.3 µM [1]: 3% | inhibition at 33 µM [1]: 7% | inhibition at 330 µM [1]: 89%

COc1cc(/C=C2\S/C(=N\c3ccccc3)N([C@@H](C)C(=O)N[C@@H](Cc3ccc(O)cc3)C(N)=O)C2=O)cc(OC)c1O [compound 50, (S)-N-((S)-1-amino-3-(4-hydroxyphenyl)-1-oxopropan-2-yl)-2-((2Z,5Z)-5-(4-hydroxy-3,5-dimethoxybenzylidene)-4-oxo-2-(phenylimino)thiazolidin-3-yl)propanamide]
inhibition at 330 µM [1]: 90%

COc1cc(/C=C2\S/C(=N\c3ccccc3)N([C@@H](C)C(=O)N[C@@H](CCCN)C(N)=O)C2=O)cc(OC)c1O [compound 54, (S)-5-amino-2-((S)-2-((2Z,5Z)-5-(4-hydroxy-3,5-dimethoxybenzylidene)-4-oxo-2-(phenylimino)thiazolidin-3-yl)propanamido)pentanamide]
inhibition at 330 µM [1]: 94%

COc1cc(/C=C2\S/C(=N\c3ccccc3)N([C@H](C)C(=O)N[C@@H](CCCNC(=N)N)C(N)=O)C2=O)cc(OC)c1O [compound 85, (S)-5-guanidino-2-((R)-2-((2Z,5Z)-5-(4-hydroxy-3,5-dimethoxybenzylidene)-4-oxo-2-(phenylimino)thiazolidin-3-yl)propanamido)pentanamide]
inhibition at 33 µM [1]: 31% | inhibition at 330 µM [1]: 99%

COc1cc(/C=C2\S/C(=N\c3ccccc3)NC2=O)cc(OC)c1O [Compound 4]
% Secretion: 9 ± 6%

COc1cc(/C=C2\S/C(=N\c3ccccc3)N([C@@H](CC3CNc4ccccc43)C(=O)N[C@@H](CCCNC(=N)N)C(N)=O)C2=O)cc(OC)c1O (stereo partly shown) [compound 98]
% inhibition of SipA secretion (3.3 μM, Western blot): 2% | % inhibition of SipA secretion (33 μM, Western blot): 12% | % inhibition of SipA secretion (330 μM, Western blot): 100%

COc1cc(/C=C2\S/C(=N\c3ccc(CN)cc3)N(c3ccccc3)C2=O)cc(OC)c1O [compound 47, (2Z,5Z)-3-(4-(aminomethyl)phenylimino)-5-(4-hydroxy-3,5-dimethoxybenzyldene)-2-phenylthiazolidin-4-one]
% inhibition of SipA secretion (3.3 μM, Western blot): 8% | % inhibition of SipA secretion (33 μM, Western blot): 35% | % inhibition of SipA secretion (330 μM, Western blot): 100%

From patent US8252940B2, “5-substituted-2-imino-thiazolidinone compounds and their use as inhibitors of bacterial infection” (University of Washington, priority 2008, dated 2012)
